Results published in PMC12508687, “Elucidating the Role and Mechanism of Alpha‐Enolase in Senescent Amelioration via Metabolic Reprogramming” (Cell Proliferation, 2025).

Assays:
Assay in all cases: microscale thermophoresis (MST)
Assay type in all cases: binding
[1] = molecular target: T1, pyruvate kinase M (PKM) (Homo sapiens, UniProt P14618)
T1 construct: His-tagged PKM protein

[2] = molecular target: T2, alpha-enolase (ENO1) (Homo sapiens, UniProt P06733)
T2 construct: His-tagged ENO1 protein

[3] = molecular target: T3, ENO1 (S254A) (Homo sapiens, UniProt P06733, S254A)
T3 construct: His-tagged ENO1 (S254A) protein
T3 sequence (P06733 2-434 S254A): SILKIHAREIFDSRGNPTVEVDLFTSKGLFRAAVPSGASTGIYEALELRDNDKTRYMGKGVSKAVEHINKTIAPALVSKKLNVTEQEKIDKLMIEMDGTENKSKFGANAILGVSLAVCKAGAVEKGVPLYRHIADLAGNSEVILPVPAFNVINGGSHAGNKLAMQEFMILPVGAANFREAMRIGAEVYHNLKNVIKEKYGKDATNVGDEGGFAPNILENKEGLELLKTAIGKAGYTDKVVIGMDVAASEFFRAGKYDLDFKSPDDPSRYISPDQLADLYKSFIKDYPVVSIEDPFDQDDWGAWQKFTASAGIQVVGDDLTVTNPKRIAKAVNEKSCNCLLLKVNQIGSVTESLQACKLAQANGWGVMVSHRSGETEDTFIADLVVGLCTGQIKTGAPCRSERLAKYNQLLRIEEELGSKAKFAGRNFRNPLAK

T2 sequence (P06733 2-434): as the sequence (P06733 2-434 S254A) above, with A253S counted along it
T1 sequence (P14618 2-531): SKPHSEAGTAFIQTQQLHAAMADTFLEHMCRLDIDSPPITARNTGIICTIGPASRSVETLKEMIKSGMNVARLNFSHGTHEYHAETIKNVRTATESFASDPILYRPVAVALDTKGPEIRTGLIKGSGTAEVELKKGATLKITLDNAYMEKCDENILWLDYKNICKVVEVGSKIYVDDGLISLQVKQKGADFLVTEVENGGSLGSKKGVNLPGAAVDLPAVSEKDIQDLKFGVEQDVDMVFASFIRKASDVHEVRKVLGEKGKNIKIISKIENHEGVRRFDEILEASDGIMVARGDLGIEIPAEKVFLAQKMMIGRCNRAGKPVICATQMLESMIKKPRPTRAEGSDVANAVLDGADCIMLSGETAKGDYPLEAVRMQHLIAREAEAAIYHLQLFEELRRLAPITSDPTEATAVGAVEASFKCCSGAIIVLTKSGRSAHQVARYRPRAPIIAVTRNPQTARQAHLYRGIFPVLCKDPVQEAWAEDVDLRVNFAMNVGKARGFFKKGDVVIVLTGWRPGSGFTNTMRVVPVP

`CCOC(=O)c1nc(-c2ccc(C(F)(F)F)cc2)oc1-c1cccc(C)c1` [KB2764] showed a Kd [1] of 9.32 µM, a Kd [2] of 0.0401 µM and a Kd [3] of 240 µM.
